The source of these data is patent publication US11208422B2, “Substituted bridged diazepane derivatives and use thereof as TASK-1 and TASK-3 inhibitors” (Bayer Pharma Aktiengesellschaft, priority 2017, dated 2021).

Experiment [1] concerns the target recombinant TASK-1 (Homo sapiens (Human), UniProt O14649). The experiment can be described thus: Inhibition of recombinant TASK-1 in stably transfected CHO cells (KCl-induced depolarization, voltage-sensitive dye, FLIPR). The conditions noted are these: depolarization induced by 40 mM potassium chloride, some mean values from multiple determinations. The experiment is classed as cell-based. As to the method: (§1) The compounds of the invention were tested here with administration of 40 mM of potassium chloride in the presence of a voltage-sensitive dye using the method described in detail in the following references [Whiteaker et al., Validation of FLIPR membrane potential dye for high-throughput screening of potassium channel modulators, J. Biomol. Screen. 6 (5), 305-312 (2001); Molecular Devices FLIPR Application Note: Measuring membrane potential using the FLIPR® membrane potential assay kit on Fluorometric Imaging Plate Reader (FLIPR®) systems, http://www.moleculardevices.com/reagents-supplies/assay-kits/ion-channels/flipr-membrane-potential-assay-kits]. The activity of the test substances was determined as their ability to inhibit a depolarization induced in the recombinant cells by 40 mM potassium chloride. The concentration which can block half of this depolarization is referred to as IC50.

Experiment [2] deals with recombinant TASK-3 (Homo sapiens (Human), UniProt Q9NPC2). The experiment can be described thus: Inhibition of recombinant TASK-3 in stably transfected CHO cells (KCl-induced depolarization, voltage-sensitive dye, FLIPR). It counts as cell-based. Particulars: depolarization induced by 40 mM potassium chloride, some mean values from multiple determinations. The procedure: as §1
recombinant TASK-3, sequence (Q9NPC2 whole entry): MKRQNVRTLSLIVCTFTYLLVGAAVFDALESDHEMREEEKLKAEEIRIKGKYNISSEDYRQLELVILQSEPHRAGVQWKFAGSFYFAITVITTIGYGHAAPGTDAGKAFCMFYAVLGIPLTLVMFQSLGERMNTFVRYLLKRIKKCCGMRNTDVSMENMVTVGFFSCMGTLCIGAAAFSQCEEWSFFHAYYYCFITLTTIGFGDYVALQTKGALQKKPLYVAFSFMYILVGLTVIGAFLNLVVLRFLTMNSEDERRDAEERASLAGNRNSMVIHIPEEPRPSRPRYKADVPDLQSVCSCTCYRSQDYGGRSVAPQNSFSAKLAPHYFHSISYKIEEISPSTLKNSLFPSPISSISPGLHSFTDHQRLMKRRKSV

recombinant TASK-1, sequence (O14649 whole entry): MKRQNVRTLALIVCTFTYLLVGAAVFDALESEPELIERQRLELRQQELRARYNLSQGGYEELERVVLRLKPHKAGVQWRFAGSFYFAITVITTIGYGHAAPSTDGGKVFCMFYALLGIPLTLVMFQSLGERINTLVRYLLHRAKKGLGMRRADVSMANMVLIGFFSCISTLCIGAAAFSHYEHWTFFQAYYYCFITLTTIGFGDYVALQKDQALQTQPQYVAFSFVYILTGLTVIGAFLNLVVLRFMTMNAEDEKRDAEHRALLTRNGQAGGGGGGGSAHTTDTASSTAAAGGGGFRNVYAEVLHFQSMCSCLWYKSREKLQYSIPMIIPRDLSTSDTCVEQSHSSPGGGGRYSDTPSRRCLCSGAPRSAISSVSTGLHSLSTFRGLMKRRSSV

In the case of `O=C(c1ccccc1F)N1C2CCC1CN(Cc1c(-c3ccc(Cl)cc3)nc3ccccn13)CC2` (racemic) [Example 69, [3-{[2-(4-chlorophenyl)imidazo[1,2-a]pyridin-3-yl]methyl}-3,9-diazabicyclo[4.2.1]non-9-yl](2-fluorophenyl)methanone], the IC50 (usually the concentration that inhibits the measured activity by half) in experiment [1] came out at 1.4 µM; in experiment [2], 0.062 µM.
In the case of `COc1cccc(C(=O)N2C3CCC2CN(Cc2c(-c4ccc(Cl)cc4)nc4ccccn24)CC3)n1` (racemic) [Example 70, [3-{[2-(4-chlorophenyl)imidazo[1,2-a]pyridin-3-yl]methyl}-3,9-diazabicyclo[4.2.1]non-9-yl](6-methoxypyridin-2-yl)methanone], the IC50 in experiment [1] was 0.305 µM; in experiment [2], 0.0047 µM.
Taken in the same sequence, the figures for `O=C(c1ccccc1F)N1C2CCN(Cc3c(-c4ccc(Cl)cc4)nc4ccccn34)CC1COC2` (racemic) [Example 71, (3-{[2-(4-chlorophenyl)imidazo[1,2-a]pyridin-3-yl]methyl}-8-oxa-3,10-diazabicyclo[4.3.1]dec-10-yl](2-fluorophenyl)methanone] were 0.74 µM and 0.031 µM.
With `COc1cccc(C(=O)N2C3CCN(Cc4c(-c5ccc(Cl)cc5)nc5ccccn45)CC2COC3)n1` (racemic) [Example 72, [3-{[2-(4-chlorophenyl)imidazo[1,2-a]pyridin-3-yl]methyl}-8-oxa-3,10-diazabicyclo[4.3.1]dec-10-yl](6-methoxypyridin-2-yl)methanone], the IC50 in experiment [1] came out at 0.12 µM; in experiment [2], 0.0051 µM.
In the case of `Cc1nonc1C(=O)N1C2CCN(Cc3c(-c4ccc(Cl)cc4)nc4ccccn34)CC1COC2` (racemic) [Example 73, [3-{[2-(4-chlorophenyl)imidazo[1,2-a]pyridin-3-yl]methyl}-8-oxa-3,10-diazabicyclo[4.3.1]dec-10-yl](4-methyl-1,2,5-oxadiazol-3-yl)methanone], the IC50 in experiment [1] amounted to 0.099 µM; in experiment [2] it was 0.005 µM.
As for `O=C(c1ccccc1F)N1C2CCN(Cc3c(-c4ccc(Cl)cc4)nc4ncccn34)CC1COC2` (racemic) [Example 74, [3-{[2-(4-chlorophenyl)imidazo[1,2-a]pyrimidin-3-yl]methyl}-8-oxa-3,10-diazabicyclo[4.3.1]dec-10-yl](2-fluorophenyl)methanone], the IC50 in experiment [1] worked out at 5 µM; in experiment [2], 0.2 µM.
Take `COc1cccc(C(=O)N2C3CCN(Cc4c(-c5ccc(Cl)cc5)nc5ncccn45)CC2COC3)n1` (racemic) [Example 75, [3-{[2-(4-chlorophenyl)imidazo[1,2-a]pyrimidin-3-yl]methyl}-8-oxa-3,10-diazabicyclo[4.3.1]dec-10-yl](6-methoxypyridin-2-yl)methanone]: the IC50 in experiment [1] turned out to be 2.3 µM; in experiment [2] it was 0.077 µM.
For the compound `Cc1nonc1C(=O)N1C2CCN(Cc3c(-c4ccc(Cl)cc4)nc4ncccn34)CC1COC2` (racemic) [Example 76, [3-{[2-(4-chlorophenyl)imidazo[1,2-a]pyrimidin-3-yl]methyl}-8-oxa-3,10-diazabicyclo[4.3.1]dec-10-yl](4-methyl-1,2,5-oxadiazol-3-yl)methanone], the IC50 is 1.4 µM in experiment [1] and 0.066 µM in experiment [2].
Taken in the same sequence, the figures for `Nc1nonc1C(=O)N1C2CCN(Cc3c(-c4ccc(Cl)cc4)nc4ncccn34)CC1COC2` (racemic) [Example 77, (4-amino-1,2,5-oxadiazo1-3-yl)[3-{[2-(4-chlorophenyl)imidazo[1,2-a]pyrimidin-3-yl]methyl}-8-oxa-3,10-diazabicyclo[4.3.1]dec-10-yl]methanone] were 3.3 µM and 0.27 µM.
For the compound `COc1ccc(F)c(C(=O)N2C3CCN(Cc4c(-c5ccc(Cl)cc5)nc5ccccn45)CC2COC3)n1` (racemic) [Example 92, [3-{[2-(4-chlorophenyl)imidazo[1,2-a]pyridin-3-yl]methyl}-8-oxa-3,10-diazabicyclo[4.3.1]dec-10-yl](3-fluoro-6-methoxypyridin-2-yl)methanone], the half-inhibitory concentration (IC50) in experiment [1] worked out at 0.085 µM; in experiment [2], 0.0025 µM.
In the case of `COc1ccc(Cl)c(C(=O)N2C3CCC2CN(Cc2c(-c4ccc(Cl)cc4)nc4ncccn24)CC3)n1` (racemic) [Example 99, (3-chloro-6-methoxypyridin-2-yl)(3-{[2-(4-chlorophenyl)imidazo[1,2-a]pyrimidin-3-yl]methyl}-3,9-diazabicyclo[4.2.1]non-9-yl)methanone], the values for the IC50 in experiment [1] and in experiment [2] were 0.29 µM and 0.034 µM, respectively.
Consider `COc1ccc(Cl)c(C(=O)N2C3CCC2CN(Cc2c(-c4ccc(Cl)cn4)nc4ccccn24)CC3)n1` (racemic) [Example 100, (3-chloro-6-methoxypyridin-2-yl)(3-{[2-(5-chloropyridin-2-yl)imidazo[1,2-a]pyridin-3-yl]methyl}-3,9-diazabicyclo[4.2.1]non-9-yl)methanone], for which the values for the IC50 in experiment [1] and in experiment [2] were 0.37 µM and 0.042 µM, respectively.
Consider `COc1ccc(F)c(C(=O)N2C3CCC2CN(Cc2c(-c4ccc(Cl)cn4)nc4ccccn24)CC3)n1` (single isomer, unassigned) [Example 16, [3-{[2-(5-Chloropyridin-2-yl)imidazo[1,2-a]pyridin-3-yl]methyl}-3,9-diazabicyclo[4.2.1]non-9-yl](3-fluoro-6-methoxypyridin-2-yl)methanone], for which the figures for the IC50 in experiment [1] and in experiment [2] were 1.7 µM and 0.065 µM, respectively.
With `COc1ccc(F)c(C(=O)N2CCC3CCC2CN3Cc2c(-c3ccc(Cl)cc3)nc3ncccn23)n1` (single isomer, unassigned) [Example 17, [6-{[2-(4-Chlorophenyl)imidazo[1,2-a]pyrimidin-3-yl]methyl}-2,6-diazabicyclo[3.2.2]non-2-yl](3-fluoro-6-methoxypyridin-2-yl)methanone], the IC50 in experiment [1] turned out to be 3.3 µM; in experiment [2], 0.015 µM.
Taken in the same sequence, the figures for `COc1ccc(F)c(C(=O)N2C3CCC2CN(Cc2c(-c4ccc(Cl)cc4)nc4ccccn24)CC3)n1` (single isomer, unassigned) [Example 78, [3-{[2-(4-chlorophenyl)imidazo[1,2-a]pyridin-3-yl]methyl}-3,9-diazabicyclo[4.2.1]non-9-yl](3-fluoro-6-methoxypyridin-2-yl)methanone] were 0.22 µM and 0.005 µM.
For `COc1ccc(F)c(C(=O)N2C3CCC2CN(Cc2c(-c4ccc(Cl)cc4)nc4ccccn24)CC3)n1` (single isomer, unassigned) [Example 79, [3-{[2-(4-chlorophenyl)imidazo[1,2-a]pyridin-3-yl]methyl}-3,9-diazabicyclo[4.2.1]non-9-yl](3-fluoro-6-methoxypyridin-2-yl)methanone], the IC50 in experiment [1] turned out to be 0.29 µM; in experiment [2] it was 0.011 µM.
Taken in the same sequence, the figures for `O=C(c1ccccc1F)N1C2CCC1CN(Cc1c(-c3ccc(Cl)cc3)nc3ncccn13)CC2` (single isomer, unassigned) [Example 80] were 4.5 µM and 0.093 µM.
For `COc1ccc(F)c(C(=O)N2C3CCC2CN(Cc2c(-c4ccc(Cl)cc4)nc4ncccn24)CC3)n1` (single isomer, unassigned) [Example 82, [3-{[2-(4-chlorophenyl)imidazo[1,2-a]pyrimidin-3-yl]methyl}-3,9-diazabicyclo[4.2.1]non-9-yl](3-fluoro-6-methoxypyridin-2-yl)methanone], the IC50 was found to be 0.03 µM in experiment [1] and 0.0014 µM in experiment [2].
